The nature of one data set: catalepsy in rats. The settings on record: rat, in vivo, sc; rats. The data set is classed as in vivo, rat. On the procedure:
(§1) The s.c. application of the compounds of Example 5 (0.5 to 16 mg/kg) and of Example 8 (0.125 to 4 mg/kg), respectively, caused catalepsy in rats (the method was described by Morelli and Chiara, Europ. J. Pharmacol. 117, 179-185, 1985).

For data set [1], the target named is T1, D2 receptors (Mus musculus, UniProt P61168).
T1 construct: from tissue; host or cells: living mice (central nervous system)
Kind of data set: apomorphine-induced climbing in mice. Format: in vivo. The settings on record: ip, -30 min., apomorphine 1.5 mg/kg s.c., read-out: ID50, climbing behavior. On the procedure:
The application of apomorphine in a dose of 1.5 mg/kg s.c. caused a characteristic climbing behavior in mice.

For another data set, the system named is rats. Kind of data set: catalepsy in rats. Format: in vivo, rat. The settings on record: in words. On the procedure:
as §1

In the next data set the target is D2 receptor (Homo sapiens, UniProt P14416). The experiment in a line: binding, [^3 H]Raclopride. The settings on record: for Ki: D2, [^3 H]Raclopride; for affinity for D2 receptors: in words. The text has this:
(§2) Binding affinities of the compounds of Examples 1

A further data set has as its system isolated rat uterus. Kind of data set: uterotonic activity (isolated rat uterus). The settings on record: in words.
The next data set relates to α1 receptor. Kind of data set: binding, [^3 H]Prazosin. The text has this: (§3) Binding affinities of the compounds of Examples 5
The target of another data set is T2, 5-HT2 receptors (Mus musculus, UniProt P35363).
T2 construct: The head twitch model in mice; from tissue; host or cells: living mice (central nervous system)
Kind of data set: inhibition of the head twitch response after 5-HTP/carbidopa. The settings on record: ip; for ED50: mice, read-out: ID50, inhibition of head twitch response. Format: in vivo, mice. The procedure:
The substance was injected 15 minutes prior to DL-5-HTP. The head twitch was recorded from 30 to 35 minutes after the DL-5-HTP injection (modified method according to Handley and Singh, Br. J. Pharmacol. 86, 297 (1985)).
The compound was injected 15 minutes prior to L-5-HTP (modified method according to Handley and Singh, Br. J. Pharmacol. 86, 297 (1985)).
The head twitch model in mice represents an experimental model for determining the hallucinogenic action of a compound (the method was described by Handley and Singh, Br.J.Pharmacol., 86, 297-303, 1985). It is believed that the response is conveyed via the 5-HT2 receptors.

Data set [2] concerns sigma receptor. The experiment in a line: functional test, sigma receptor. The settings on record: in words.
Data set [3] concerns isolated rat uterus (serotonin). Kind of data set: inhibition of serotonin-induced contractions of the isolated rat uterus. The settings on record: serotonin-induced contractions (serotonin 2.47×10^-8 M where printed).
Another data set relates to pithed rats. Kind of data set: vasoconstriction / diastolic pressure in pithed rats (Gillespie). Format: in vivo, rat. The settings on record: 450 μg/kg i.v.; for peripheral vasoconstriction: in words.
The target in data set [4] is T3, D2 receptors (Rattus norvegicus, UniProt P61169).
T3 construct: from tissue; host or cells: living rats (central nervous system)
Kind of data set: apomorphine-induced locomotion. Format: in vivo. The settings on record: sc, -45 min., apomorphine 0.4 mg/kg s.c., rats, read-out: ID50, apomorphine-induced locomotion.

Data set [5] has as its target T4, isolated rabbit thoracic aorta (serotonin) (Oryctolagus cuniculus, UniProt G1SYA7).
T4 construct: isolated rabbit thoracic aorta; from tissue; host or cells: isolated rabbit thoracic aorta

The next data set concerns the target D1 receptor (Homo sapiens, UniProt P21728). Kind of data set: binding, [^3 H]SCH23390.
From the text: as §3

Data set [6] has as its system sigma receptor. The experiment in a line: binding at [^3 H] DTG binding site. The settings on record: in words.
The nature of data set [7]: prolongation of pentobarbital-induced anesthesia in mice. The settings on record: mouse, in vivo, ip.
Another data set deals with mice. Kind of data set: spontaneous motor activity in mice. Format: in vivo. The settings on record: two models (motor activity and pentobarbital anesthesia); vs haloperidol; in words.
A short description of data set [8]: spontaneous motor activity in mice. Format: in vivo. The settings on record: mouse, in vivo, ip; mice; read-out: ID50, inhibition of spontaneous motor activity.
Another data set has as its target 5-HT2 receptor (Homo sapiens, UniProt P28223). Kind of data set: biochemical. The settings on record: for Ki: 5-HT2, [^3 H]Ketanserin, read-out: Ki; for affinity for 5-HT2 receptors: in words. The data set is classed as binding.
From the text: as §2

Data set [9] has as its target T5, 5-HT1A serotoninergic receptor (Homo sapiens, UniProt P08908).
T5 sequence (P08908 1-422): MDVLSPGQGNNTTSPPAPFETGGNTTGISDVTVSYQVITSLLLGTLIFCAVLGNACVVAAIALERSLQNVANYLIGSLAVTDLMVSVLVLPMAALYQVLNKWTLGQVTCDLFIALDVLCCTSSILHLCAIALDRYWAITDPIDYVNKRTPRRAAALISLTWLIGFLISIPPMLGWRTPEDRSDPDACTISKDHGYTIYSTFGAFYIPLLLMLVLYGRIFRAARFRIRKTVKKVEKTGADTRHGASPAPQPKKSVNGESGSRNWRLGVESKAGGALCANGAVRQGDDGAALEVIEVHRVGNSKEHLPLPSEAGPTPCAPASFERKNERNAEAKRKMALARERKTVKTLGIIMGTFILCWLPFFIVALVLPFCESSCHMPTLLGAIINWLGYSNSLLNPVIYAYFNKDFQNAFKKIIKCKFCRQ
The experiment in a line: binding at [^3 H] 8-OH-DPAT binding site. The settings on record: for affinity to 5-HT1A receptor: [^3 H] 8-OH-DPAT, in words.
From the text: as §2

The subject of a further data set is α1 receptors. Kind of data set: noradrenaline-induced lethality in rats. The data set is classed as in vivo, rat. The settings on record: s.c.
The nature of data set [10]: overall antipsychotic action and side-effect profile (summary statements). Format: in vivo. The settings on record: in words.
In data set [11] the test system is isolated rabbit thoracic aorta (noradrenaline). The experiment in a line: inhibition of the constrictive activity of noradrenaline on the isolated rabbit thoracic aorta.
Data set [12] in a line: blood pressure and heart rate in pentobarbital-anesthetized normotensive rats. The data set is classed as in vivo, rat. The settings on record: rat, in vivo, iv; normotensive rats, pentobarbital-induced anesthesia; read-out: ED50, decrease of the mean arterial blood pressure.
Data set [13] relates to pentobarbital-anesthetized normotensive rats. The data set is described as above. The data set is classed as in vivo, rat. The settings on record: 450 μg/kg i.v.; for effect on carotid artery pressure / effect on heart rate: in words.
Data set [14] concerns the target T5, 5-HT1A serotoninergic receptor. Kind of data set: functional test, 5-HT1A serotoninergic receptor. The settings on record: in words.
For a further data set, the system named is 5-HT1A receptors. Kind of data set: spontaneous tail-flicks in rats. The data set is classed as in vivo, rat. The settings on record: in words.
In data set [15] the test system is isolated rabbit thoracic aorta. Kind of data set: constriction of the isolated rabbit thoracic aorta.
For another data set, the system named is pupil. Kind of data set: dilatation of the pupil in mice (Pulewka). The data set is classed as in vivo. The settings on record: in words.

The text below walks through data of patent US5480885A, “Ergoline derivatives of 1-propinylamine, a process for the manufacture thereof and the use thereof for medicaments” (priority 1991, dated 1996).

“Also recorded” adds a separate entry of the source. Read-outs that look alike come from different tables or passages of the source.

T2 sequence (P35363 whole entry): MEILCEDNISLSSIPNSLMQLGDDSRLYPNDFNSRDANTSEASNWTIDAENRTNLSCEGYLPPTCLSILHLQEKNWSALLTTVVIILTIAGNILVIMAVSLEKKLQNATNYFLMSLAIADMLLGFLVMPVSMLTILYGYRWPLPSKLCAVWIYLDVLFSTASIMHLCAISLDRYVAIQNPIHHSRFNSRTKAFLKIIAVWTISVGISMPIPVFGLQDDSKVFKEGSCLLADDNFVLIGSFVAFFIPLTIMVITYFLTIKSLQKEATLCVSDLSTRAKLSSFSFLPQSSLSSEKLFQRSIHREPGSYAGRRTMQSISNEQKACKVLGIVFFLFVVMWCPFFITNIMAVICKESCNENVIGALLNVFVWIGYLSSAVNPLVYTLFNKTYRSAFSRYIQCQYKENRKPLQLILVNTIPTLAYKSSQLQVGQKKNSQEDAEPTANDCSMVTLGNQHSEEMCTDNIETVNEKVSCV
D2 receptor, sequence (P14416 whole entry): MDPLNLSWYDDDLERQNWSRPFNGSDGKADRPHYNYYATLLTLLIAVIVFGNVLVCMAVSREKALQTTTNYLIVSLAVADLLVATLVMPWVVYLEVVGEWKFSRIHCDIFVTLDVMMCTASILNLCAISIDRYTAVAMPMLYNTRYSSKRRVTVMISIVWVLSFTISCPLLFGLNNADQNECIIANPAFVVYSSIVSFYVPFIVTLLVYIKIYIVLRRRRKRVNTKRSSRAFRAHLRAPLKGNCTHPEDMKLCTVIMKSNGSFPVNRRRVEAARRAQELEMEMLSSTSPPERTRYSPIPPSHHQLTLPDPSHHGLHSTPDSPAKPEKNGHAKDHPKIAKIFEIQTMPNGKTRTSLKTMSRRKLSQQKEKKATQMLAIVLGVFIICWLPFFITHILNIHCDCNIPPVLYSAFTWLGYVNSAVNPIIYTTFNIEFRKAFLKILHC
5-HT2 receptor, sequence (P28223 whole entry): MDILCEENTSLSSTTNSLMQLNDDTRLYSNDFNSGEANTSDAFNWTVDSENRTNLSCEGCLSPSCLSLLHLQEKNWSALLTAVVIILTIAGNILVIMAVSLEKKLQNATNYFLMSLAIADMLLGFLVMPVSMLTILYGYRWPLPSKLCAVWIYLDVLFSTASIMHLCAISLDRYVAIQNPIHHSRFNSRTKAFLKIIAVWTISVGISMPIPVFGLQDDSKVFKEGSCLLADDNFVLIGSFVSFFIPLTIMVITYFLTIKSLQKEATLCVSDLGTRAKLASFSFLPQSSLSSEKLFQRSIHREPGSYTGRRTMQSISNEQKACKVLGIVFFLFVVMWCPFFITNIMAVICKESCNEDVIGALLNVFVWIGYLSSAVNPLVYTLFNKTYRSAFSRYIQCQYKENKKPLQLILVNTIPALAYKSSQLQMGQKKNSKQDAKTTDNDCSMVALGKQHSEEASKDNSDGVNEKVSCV
D1 receptor, sequence (P21728 whole entry): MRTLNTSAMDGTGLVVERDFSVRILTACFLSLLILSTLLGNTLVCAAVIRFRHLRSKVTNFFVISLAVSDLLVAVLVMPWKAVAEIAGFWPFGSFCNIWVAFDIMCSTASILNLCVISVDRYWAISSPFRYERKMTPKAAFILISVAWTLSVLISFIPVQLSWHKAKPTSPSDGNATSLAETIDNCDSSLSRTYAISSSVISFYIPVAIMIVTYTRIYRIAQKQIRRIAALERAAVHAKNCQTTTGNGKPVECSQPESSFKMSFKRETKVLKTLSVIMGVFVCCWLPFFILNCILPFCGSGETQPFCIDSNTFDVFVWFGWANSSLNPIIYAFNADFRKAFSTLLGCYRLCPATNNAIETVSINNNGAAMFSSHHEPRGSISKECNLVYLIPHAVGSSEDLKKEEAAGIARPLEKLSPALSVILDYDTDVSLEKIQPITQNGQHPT
T4 sequence (G1SYA7 entry or part of it): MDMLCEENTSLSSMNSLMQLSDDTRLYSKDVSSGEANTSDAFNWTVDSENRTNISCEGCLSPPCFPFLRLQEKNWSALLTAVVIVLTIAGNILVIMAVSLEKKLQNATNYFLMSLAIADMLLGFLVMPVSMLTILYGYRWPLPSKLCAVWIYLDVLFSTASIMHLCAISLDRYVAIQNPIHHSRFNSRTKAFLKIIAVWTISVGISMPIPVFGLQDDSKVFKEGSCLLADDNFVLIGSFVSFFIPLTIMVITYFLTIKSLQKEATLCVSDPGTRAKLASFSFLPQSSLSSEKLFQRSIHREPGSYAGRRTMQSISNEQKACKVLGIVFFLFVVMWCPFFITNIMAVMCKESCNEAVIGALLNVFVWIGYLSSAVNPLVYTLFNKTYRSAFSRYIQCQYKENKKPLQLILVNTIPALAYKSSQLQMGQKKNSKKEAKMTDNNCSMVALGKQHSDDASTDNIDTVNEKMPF
T1 sequence (P61168 whole entry): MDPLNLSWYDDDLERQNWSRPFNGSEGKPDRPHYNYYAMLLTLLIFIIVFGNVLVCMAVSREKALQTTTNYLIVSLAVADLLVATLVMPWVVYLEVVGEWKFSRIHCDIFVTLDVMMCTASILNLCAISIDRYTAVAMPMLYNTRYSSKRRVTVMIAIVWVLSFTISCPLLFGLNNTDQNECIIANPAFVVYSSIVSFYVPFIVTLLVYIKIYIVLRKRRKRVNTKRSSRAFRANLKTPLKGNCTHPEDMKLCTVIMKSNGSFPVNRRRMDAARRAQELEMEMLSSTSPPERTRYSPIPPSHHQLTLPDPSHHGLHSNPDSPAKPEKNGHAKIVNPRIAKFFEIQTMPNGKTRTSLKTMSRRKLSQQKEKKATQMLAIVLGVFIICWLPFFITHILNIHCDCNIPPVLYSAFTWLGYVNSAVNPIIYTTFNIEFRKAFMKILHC
T3 sequence (P61169 whole entry): as the sequence (P61168 whole entry) above, with P29A counted along it

Regarding `O=C(CCCN1CCC(O)(c2ccc(Cl)cc2)CC1)c1ccc(F)cc1` [haloperidole, reference compound], the ED50 in the data set “catalepsy in rats” turned out to be 0.019 mg/kg.
Regarding `C#CCN(C)C(=O)[C@@H]1C=C2c3cccc4[nH]c(Br)c(c34)C[C@H]2N(C)C1` [Example 5, 2-Bromo-9,10-didehydro-N-methyl-N-(2'-propinyl)-6-methylergoline-8β-carboxamide], the ED50 at D2 receptors [1] was 6.89 mg/kg; in “catalepsy in rats” it was 1.4 mg/kg; on 5-HT2 receptors (L-5-HTP/carbidopa, 15 minutes prior) it was 3.8 mg/kg; at D2 receptors [4], 0.66 mg/kg; in data set [7], 9.2 mg/kg; in data set [8], 12.5 mg/kg. The ED50 in [12] was found to be 0.42 mg/kg. The “cataleptic action compared with haloperidole” value in the data set on rats is “lesser than the action caused by the typical antipsychotic haloperidole”. The inhibitory constant (Ki) came out at 2.3 nM at D2 receptor; 29 nM at α1 receptor (α1, [^3 H]Prazosin); 97 nM at D1 receptor (D1, [^3 H]SCH23390); 18 nM at 5-HT2 receptor. Besides, at D2 receptor, the “affinity for D2 receptors” value is recorded as “high affinity”. Moreover, the uterotonic activity entry with isolated rat uterus is “no uterotonic activity”. In the data set with α1 receptor (in words), the “affinity for α1 receptors” value was “lower”. Moreover, in the data set on sigma receptor [2], the “functional activity at sigma receptor” value was “indicated an antagonistic activity”. In data set [3], half-maximal inhibition (IC50) required 12.5 nM. The peripheral vasoconstriction entry in the data set on pithed rats is “slowly developing peripheric vasoconstriction”. The “peripheric vasoconstriction, increase” value with pithed rats (vs control) turned out to be 20%. Also, in data set [5] (in words), the “mode of inhibition of serotonin constriction” value is on record as “competitively inhibited”. In [5] (vs serotonin, read-out: pA2 (converted)), the Kb is 11.7 nM. Also, the “affinity for D1 receptors” value on D1 receptor (in words) is “lower”. The “affinity to sigma receptor” value in the data set with sigma receptor [6] was “possessed affinity”. Besides, the “depressant action on the level of CNS” value in the data set on mice is recorded as “several times lower depressant action on the level of CNS if compared with haloperidol”. On 5-HT2 receptor, the “affinity for 5-HT2 receptors” value is on record as “high affinity”. Moreover, the “affinity to 5-HT1A receptor” value in data set [9] is reported as “possessed affinity”. Moreover, the “ID50, noradrenaline-induced lethality” value in the data set on α1 receptors was 5.11 mg/kg. Also, in data set [10], the antipsychotic action entry is recorded as “strongest antipsychotic action”. Moreover, the “mode of inhibition of noradrenaline constriction” value in [11] (in words) was “competitively inhibited”. Further, in data set [11] (vs noradrenaline), the pA2 turned out to be 6.45. The “effect on carotid artery pressure” value in data set [13] was “small, yet statistically significant decrease in carotid artery pressure and heart rate”. In data set [13], the “effect on heart rate” value was “small, yet statistically significant decrease in carotid artery pressure and heart rate”. In addition, the “maximum reduction in carotid artery pressure” value in data set [13] (vs initial level) worked out at 10%. In addition, the “reduction in heart rate” value in data set [13] (vs initial level) is on record as 10%. The “functional activity at 5-HT1A” value in data set [14] is “did not indicate any activity”.
As to `C#CCNC(=O)[C@@H]1C=C2c3cccc4[nH]cc(c34)C[C@H]2N(C)C1` [Example 1, 9,10-Didehydro-N-(2'-propinyl)-6-methylergoline-8β-carboxamide], the spontaneous tail-flick entry with 5-HT1A receptors (0.08 to 0.63 mg/kg s.c. (Example 1), 5.0 mg/kg s.c. (Example 2)) is “provoked a dose- and time-dependent spontaneous tail-flick in rats”. Also, the “tail-flick effect compared with 8-OH-DPAT” value in the data set with 5-HT1A receptors (s.c.) is listed as “very similar to that caused by the selective 5-HT1A agonist 8-OH-DPAT”. Further, on D2 receptor, the inhibition constant Ki is 151 nM and the “affinity for D2 receptors” value is “lower affinity”. Also, the uterotonic activity entry in the data set with isolated rat uterus is given as “no uterotonic activity”. Also, testing at 4 mg/kg on 5-HT2 receptors (4 mg/kg i.p., D,L-5-hydroxytryptophan/carbidopa, 15 minutes prior) gave an inhibition of 62%. Further, the ED50 on 5-HT2 receptors (5-hydroxytryptophan/carbidopa) worked out at 0.74 mg/kg. In the data set with sigma receptor [2], the “functional activity at sigma receptor” value was “indicated an antagonistic activity”. In the data set with pithed rats, the peripheral vasoconstriction entry is given as “transient, yet very strong peripheral vasoconstriction”. For the same compound, the “affinity to sigma receptor” value in the data set with sigma receptor [6] is “possessed affinity”. On 5-HT2 receptor, the inhibitory constant (Ki) was 64 nM and the “affinity for 5-HT2 receptors” value is listed as “high affinity”. The compound also gave a Ki in [9] (5-HT1A, [^3 H]8-OH-DPAT) of 1 nM. For the same compound, in data set [9], the “affinity to 5-HT1A receptor” value was “high affinity; also recorded: possessed affinity”. In data set [15] (1 μM), the “receptors responsible for vasoconstriction” value is listed as “the result of the activation of α1 -adrenergic receptors”. Further, the “constriction of the isolated rabbit thoracic aorta” value in data set [15] (in words) was “caused a constriction of the isolated rabbit thoracic aorta”. Further, the “intrinsic activity, aorta constriction” value in [15] (in words, vs serotonin) was “comparable to that of serotonin”. Besides, in data set [13], the exitus result is listed as “followed by exitus”; the “time to onset of reduction in pressure and heart rate” value is on record as “Approximately 2 minutes”; the “effect on carotid artery pressure” value was “a strong reduction in the carotid artery pressure and heart rate”; the “effect on heart rate” value was “a strong reduction in the carotid artery pressure and heart rate”. Besides, in the data set with pupil (5 mg/kg i.p.), the “dilatation of the pupil” value was “very strong dilatation of the pupil” and the “time course of effect” value is recorded as “After 60 minutes the effect was quickly reduced”. Besides, the “behavioural effects in mice” value with pupil is “The mice became agitated, piloerection, tremor and excitation took place”. Besides, the “functional activity at 5-HT1A” value in data set [14] is given as “indicated an agonistic activity”.

Usually Ki stands for a dissociation constant, usually derived from enzyme kinetics or from competition with a known ligand. A word on the IC50: it is the concentration needed to halve the response being measured. A high value points to a need for much substance. What is called pA2 is a measure of antagonist potency on a negative log scale. Low readings indicate a weaker antagonist, high ones a more potent antagonist. By inhibition is commonly meant the share of the control response that was lost under treatment. High values mean a strong effect, low ones a weak effect.
